Data set [1] addresses T1, A1 receptor (Rattus norvegicus, UniProt P25099).
T1 sequence (P25099 1-326): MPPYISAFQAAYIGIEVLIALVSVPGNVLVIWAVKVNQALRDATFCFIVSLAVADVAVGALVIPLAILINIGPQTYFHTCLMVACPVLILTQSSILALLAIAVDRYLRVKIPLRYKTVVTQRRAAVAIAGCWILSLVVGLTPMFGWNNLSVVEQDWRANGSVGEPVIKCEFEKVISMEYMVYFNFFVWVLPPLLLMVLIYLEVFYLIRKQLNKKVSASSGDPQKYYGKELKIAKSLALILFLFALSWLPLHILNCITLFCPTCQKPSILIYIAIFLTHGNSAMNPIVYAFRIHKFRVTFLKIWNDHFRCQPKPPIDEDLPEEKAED
The conditions noted are these: Siddiqi et al (1995); cited from earlier work.

For data set [2], the target named is A2a receptor (Rattus norvegicus, UniProt P30543). As to conditions: Siddiqi et al (1995); cited from earlier work.
Chain of A2a receptor (P30543 whole entry): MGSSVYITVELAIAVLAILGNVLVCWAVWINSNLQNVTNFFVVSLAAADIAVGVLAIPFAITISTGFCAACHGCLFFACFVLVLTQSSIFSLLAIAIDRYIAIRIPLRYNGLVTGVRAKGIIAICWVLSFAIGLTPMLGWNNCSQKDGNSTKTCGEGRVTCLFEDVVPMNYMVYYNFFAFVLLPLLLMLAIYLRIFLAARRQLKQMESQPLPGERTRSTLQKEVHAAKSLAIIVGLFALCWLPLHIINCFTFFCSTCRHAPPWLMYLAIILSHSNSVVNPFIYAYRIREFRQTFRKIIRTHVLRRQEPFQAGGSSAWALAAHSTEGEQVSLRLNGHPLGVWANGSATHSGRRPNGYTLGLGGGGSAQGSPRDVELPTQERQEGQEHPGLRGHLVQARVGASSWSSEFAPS
Data set [3] relates to multiple sclerosis (MS) patients. The conditions noted are these: patients having MS, U.S. Pat. No. 5,506,214; cited from earlier work.
The target of data set [4] is T2, human A3 receptor as expressed in HEK 293 cells (Homo sapiens, UniProt P0DMS8).
T2 construct: expressed in transfected cells; host or cells: HEK 293
T2 sequence (P0DMS8 1-318): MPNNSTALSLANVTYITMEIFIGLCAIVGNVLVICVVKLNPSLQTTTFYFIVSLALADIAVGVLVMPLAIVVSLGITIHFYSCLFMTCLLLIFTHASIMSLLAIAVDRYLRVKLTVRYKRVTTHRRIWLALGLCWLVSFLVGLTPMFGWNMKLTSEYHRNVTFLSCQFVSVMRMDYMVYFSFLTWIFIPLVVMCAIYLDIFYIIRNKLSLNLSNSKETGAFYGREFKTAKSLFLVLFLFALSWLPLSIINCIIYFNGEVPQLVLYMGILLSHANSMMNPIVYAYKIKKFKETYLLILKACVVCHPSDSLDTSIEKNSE
Kind of data set: Radioligand binding, [125I]AB-MECA displacement. As to conditions: human A3 receptor in HEK 293 cells, ±SEM, n = 3. As to the method:
General. […] AB-MECA, an A3 receptor agonist, was used. Displacement experiments were performed in the absence of GTP.
Radioligand Binding Studies. […] Incubations were carried out for 1 hr at 37° C. and were terminated by rapid filtration over Whatman GF/B filters, using a Brandell cell harvester (Brandell, Gaithersburg, Md.). Tubes were washed three times with 3 ml of buffer. Radioactivity was determined in a Beckman 5500B γ-counter. Nonspecific binding was determined in the presence of 10^−5 M R-PIA.
(§1) Data Analysis. Apparent Ki and EC50 values were computed from the displacement curves by non-linear regression of the competition curves with the software package Prism (Graph Pad, San Diego, Calif.).

Data set [5] is described as follows: Preliminary qualitative solubility study. It is filed as physicochemical. As to conditions: 1 mg/ml, ambient temperature.
Data set [6] addresses T3, adenosine A1 receptor in rat brain cortex (Rattus norvegicus, UniProt P25099).
T3 construct: the adenosine A1 receptor in rat brain cortex; from tissue; host or cells: rat brain cortex
T3 sequence (P25099 1-326): T1 sequence (P25099 1-326)
The data set can be described thus: Radioligand binding, [3H]DPCPX displacement. As to conditions: rat cortical membranes, 10 μM.

In data set [7] the target is T4, A2A receptor in rat striatum (Rattus norvegicus, UniProt P30543).
T4 construct: the A2A receptor in rat striatum; from tissue; host or cells: rat striatum
T4 sequence (P30543 whole entry): as the sequence (P30543 whole entry) above
The data set can be described thus: Radioligand binding, [3H]ZM 241385 displacement. The conditions noted are these: [3H]ZM 241385, rat striatal membranes.

The target in data set [8] is T5, human adenosine A2A receptors expressed in CHO cells (Homo sapiens, UniProt P29274).
T5 construct: expressed in transfected cells; host or cells: CHO
T5 sequence (P29274 whole entry): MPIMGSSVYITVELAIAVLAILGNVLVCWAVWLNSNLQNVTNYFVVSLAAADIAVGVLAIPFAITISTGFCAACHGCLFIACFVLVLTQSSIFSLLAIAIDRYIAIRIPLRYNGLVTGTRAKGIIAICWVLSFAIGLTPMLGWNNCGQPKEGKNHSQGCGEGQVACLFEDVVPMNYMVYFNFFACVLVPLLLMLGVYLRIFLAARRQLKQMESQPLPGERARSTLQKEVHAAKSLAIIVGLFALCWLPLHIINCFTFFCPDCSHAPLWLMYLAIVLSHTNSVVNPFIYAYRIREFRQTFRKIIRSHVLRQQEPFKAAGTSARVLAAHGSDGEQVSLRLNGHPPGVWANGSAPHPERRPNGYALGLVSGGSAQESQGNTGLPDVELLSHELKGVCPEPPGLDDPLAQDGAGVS
The data set can be described thus: cAMP assay A2A (stimulation of cAMP production). It is filed as cell-based. As to the method:
After incubation for 40 minutes at 37° C., 100 μL agonist was added. […] Wells were stored at −20° C. until assay.
Wells were stored at −20° C. until assay. […] As a buffer was used 150 mM K2HPO4/10 mM EDTA/0.2% Bovine Serum Albumine (BSA) at pH 7.5.
as §1
Background: Cyclic AMP is a second messenger, typically raised through Gs and lowered through Gi signalling.

Data set [9] deals with Experimental autoimmune encephalomyelitis (EAE) in female Lewis rats. The data set can be described thus: MBP-induced EAE in Lewis rats, clinical score. It is filed as in vivo, rat. As to conditions: 10 μg/kg PO BID from day 7, difference in maximal clinical score P<0.01 (FIG. 1). The method, then: EAE is an inflammatory demyelinating disease of the nervous system, which serves as a model for multiple sclerosis (MS). EAE was induced by intradermal injection at the base of the tail of female Lewis rats (8 weeks old) with an emulsion consisting of the following for each rat: 100 μg myelin basic protein (MBP) from guinea pig (M2295; Sigma), 0.1 ml Complete Freund's adjuvant (CFA; F5506, Sigma), and 0.2 mg of Mycobacterium tuberculosis H37 Ra (M. tuberculosis, 3114, Difco). The emulsion was injected in two halves into the medial footpad of each hind limb of the rats.
The rats developed clinical EAE symptoms which were graded into the following categories: 0, no neurological symptoms; 1, loss of tail tonus and paralysis of the whole tail; 2, hind limbs weakness; 3, hind limbs paralysis; 4, quadriplegia; 5, moribund. The immunized rats developed acute monophasic EAE within 10 days after immunization.

In data set [10] the test system is TNF-α. Kind of data set: Western blot of spinal cord protein extract of EAE rats. It is filed as in vivo, rat. As to conditions: treated vs untreated (FIG. 2). In general terms: Immunoblotting shows a protein as a band on a membrane.
In data set [11] the test system is IL-10. Described as above. The conditions noted are these: treated vs untreated (FIG. 2). The format is in vivo, rat.
Data set [12] concerns phosphorylated GSK-3β. The description is as above. It is filed as in vivo, rat. As to conditions: treated vs untreated (FIG. 2).
The test system of data set [13] is EAE in female C57B1 mice. Kind of data set: MOG-induced EAE in C57B1 mice, clinical score. As to conditions: MOG-immunized C57BL/6J female mice, oral treatment from day 7 (FIG. 3). It is filed as in vivo, mouse. As to the method: . The encephalitogenic emulsion containing MOG (300 μg/mouse) in Complete Freund's adjuvant enriched with 5 mg/mL Mycobacterium Tuberculosis was injected subcutaneously in the right flank of the mouse. A boost of the encephalitogenic emulsion was injected subcutaneously in the left flank one week later. Also, on the day of the first injection of MOG, Pertussis toxin (300 ng/mouse) was injected intraperitoneally at a volume dose of 0.1 mL/mouse. The injection of the Pertussis Toxin was repeated after 48 hours. The mice were observed daily from the 10th day post-EAE induction (first injection of MOG) and the EAE clinical signs were scored as follows:. 0—No neurological signs; 1—Distal limp tail: 1.5—Complete limp tail; 2—Difficulties to return on feet when laid on the back; 3—Ataxia; 4—Early paralysis; 5—Full paralysis; 6—Moribund/Death. […] The clinical score was monitored daily starting with the appearance of neurological signs.

In data set [14] the test system is colitis in male Balb/C mice. Kind of data set: Dextran sodium sulfate colitis model. The format is in vivo, mouse. As to conditions: 5% DSS Balb/c mice. From the text: Colitis induced by dextran sodium sulfate is a murine model of intestinal inflammation that resembles human inflammatory bowel diseases such as Crohn's disease. Male Balb/C mice, 8 weeks of age were fed for 7 days, with 5% dextran sulfate sodium in distilled water throughout the experiments. […] Weight loss and survival were monitored.

As usually defined, the Ki is a measure of affinity in units of concentration, obtained from inhibition or displacement. What is called Emax is the size of the effect at its maximum, as opposed to the concentration needed. For orientation: EC50 means the concentration giving half of the maximal effect. A low value points to higher potency in that assay.

As for `Nc1nc(Cl)nc2c1ncn2[C@H]1C[C@H](O)[C@@H](CO)O1` [CdA, 2-chloro-2′-deoxyadenosine], in data set [1], the “Type of action at A1 receptors” value was “putative partial agonist”. Besides, in data set [2], the Ki was 20000 nM. Besides, the “Effect on MS disease condition” value in [3] is on record as “markedly ameliorate”.

In data set [4], `OC[C@H]1O[C@@H](n2cnc3c(NC4CCCC4)ncnc32)[C@H](O)[C@@H]1O` [CPA] yielded a Ki of 120 ± 15 nM.

Turning to `CCCCC#Cc1nc(N)c2ncn(C3OC(CSC)C(O)C3O)c2n1` (stereo not drawn) [CF402, 5′-deoxy-2-(1-hexynyl)-5′-methylthioadenosine], the “Solubility in DMSO” value in data set [5] (DMSO) is given as “Soluble”. Further, in data set [5] (water), the Solubility in water result is on record as “Insoluble”. The “% displacement at 10^−5 M, A1” value in data set [6] is 36%. The same compound displayed an inhibitory constant (Ki) in data set [7] (±SEM, n = 3) of 60 ± 20 nM. For the same compound, in [8] (CHO), the Emax was found to be 45 ± 6%. Also, the EC50 in [8] (cAMP production, A2A CHO cells) is 0.7 ± 0.1 µM. For the same compound, in [9], the “Clinical EAE score vs control group” value was “remarkably low clinical score”. For the same compound, in data set [10], the “Level of TNF-α in spinal cord protein extract” value is reported as “down-regulation”. In addition, the “Level of IL-10 in spinal cord protein extract” value in data set [11] was “up-regulation”. For the same compound, the “Phosphorylated GSK-3β protein expression level in spinal cord” value in [12] was “decrease”. Besides, in [13], the “Inhibition of development of EAE clinical signs vs control group” value came to 40%. Also, the “Clinical signs of colitis” value in [14] (10 μg/kg PO BID from day 4) is “protected”. Moreover, the “Weight loss vs control” value in [14] (10 μg/kg PO BID from day 4 (FIG. 4)) is “reduced weight loss”.

As to `CNC(=O)[C@H]1O[C@@H](n2cnc3c(NCc4cccc(I)c4)nc(Cl)nc32)[C@H](O)[C@@H]1O` [Cl-IB-MECA, reference compound], the “% displacement at 10^−5 M, A2A” value in data set [7] (10 μM) was determined as 24%.

These data come from patent US20050277615A1, “Pharmaceutical compositions having anti-inflammatory activity” (CAN-FITE BIOPHARMA LTD., priority 2004, published 2005).
